This note sets out measurements from patent publication EP3087981A1, “HYGROPHORON B12 FOR USE IN THE TREATMENT OF A MYCOSIS” (Leibniz-Institut für Pflanzenbiochemie (IPB), priority 2015, dated 2016).

In brackets after ≈: the same amount, converted by molar mass.

This experiment relates to Malassezia pachydermatis Isolat CBS 1879. The experiment is described as follows: Dilution assay in 96-well microtiter plates, minimal inhibitory concentration (MHK). The note with it: CBS1879, RPMI 1640 Medium, 2 bis 4 Tage bei 37 °C, visual evaluation, read-out: minimale Hemmkonzentration (MHK). The experiment is classed as cell-based. The text has this:
Einer besonders bevorzugten Ausführungsform der Erfindung entsprechend wird Hygrophoron B^12 oder dessen Enantiomer, Epimere oder Diastereomere zur Verwendung bei der Behandlung einer Mykose eingesetzt, die durch Malassezia pachydermatis ausgelöst wird. Die Evaluierung der biologischen Eigenschaften des erfindungsgemäß verwendeten Hygrophorons B^12 ergab, dass Hygrophoron B^12 stark antimykotische Eigenschaften aufweist. Insbesondere weist Hygrophoron B^12 starke Aktivität gegen Malassezia pachydermatis auf. Figur 1 zeigt eine überraschend starke in vitro Aktivität des erfindungsgemäß verwendeten Hygrophorons B^12 gegen Malassezia pachydermatis, wobei die Aktivität mit dem Arzneistoff Terbinafin vergleichbar ist. Terbinafin ist ein synthetisches Antimykotikum und seit vielen Jahren das meist verordnete Präparat. In Figur 1 bezeichnet MHK die minimale HemmKonzentration (MHK). Sie ist die niedrigste Konzentration einer Substanz, bei der die Vermehrung von Mikroorganismen mit bloßem Auge nicht wahrgenommen werden kann. Die MHK wird mit einem sogenannten Titerverfahren bestimmt. Dabei wird die Konzentration von einem Wirkstoff (hier Terbinafin und Hygrophoron B^12) bestimmt, der das Wachstum von Malassezia pachydermatis gerade noch hemmt. Die MHK wird in Mikrogramm pro Milliliter (µg/ml) angegeben. […]

Turning to `CCCCCCCCCCCC[C@@H](O)[C@@]1(O)C(=O)C=C[C@@H]1O` [Hygrophoron B^12, (+)-cis-4,5-Dihydroxy-5-(1-hydroxytridecyl)cyclopent-2-enon], the MIC stood at 0.17 µg/mL (≈ 0.544 µM).
